pIC50: −log10 of the molar value. The source made the active and inactive calls. No cut-off for these calls is given here.
Columns and labels:
[1] = Clearance in Sprague-Dawley rat at 5 mg/kg, iv measured after 48 hrs; type: ADME, organism-based; conditions: in vivo
Mus musculus [2] = assay: Antiinflammatory activity in LPS-induced BALB/c sepsis mouse model assessed as decrease in MDA level in serum at 20 mg/kg, po preadministered with compound for 14 days followed by LPS stimulation and measured after 6 hrs; type: functional, organism-based; conditions: time 342.0 hrs
[3] = target: MAP kinase-interacting serine/threonine-protein kinase 1 (Homo sapiens, UniProt Q9BUB5); assay: Inhibition of MNK1 (unknown origin) at 1 uM relative to control
[4] = Toxicity in BALB/c mouse assessed as change in body weight at 10 to 20 mg/kg, po administered for 14 days; type: organism-based; conditions: in vivo, 336 h, dose 10-20 mg/kg, time 14 day
Mus musculus [5] = assay: Antiinflammatory activity in LPS-induced BALB/c sepsis mouse model assessed as reversal of LPS-induced liver […] index at 20 mg/kg, po preadministered with compound for 14 days followed by LPS stimulation and measured after 6 hrs; type: functional, organism-based; conditions: time 342.0 hrs
RAW264.7 [6] = assay: Antiinflammatory activity against mouse RAW264.7 cells assessed as inhibition of LPS-NO production at 20 uM by Griess reagent based assay relative to control; type: functional
[7] = AUC (0 to t) in Sprague-Dawley rat at 5 mg/kg, iv measured after 48 hrs; type: ADME, organism-based; conditions: in vivo
RAW264.7 [8] = assay: Antiinflammatory activity against LPS-induced mouse RAW264.7 cells assessed as decrease in IL-6 expression at 10 to 20 uM by Western blot analysis; type: functional, cell-based; conditions: dose 10-20 µM
RAW264.7 [9] = assay: Antiinflammatory activity in LPS-induced mouse RAW264.7 cells assessed as increase in Arg1 protein expression by Western blot analysis; type: functional, cell-based; conditions: dose <= 20.0 µM
Mus musculus [10] = assay: Antiinflammatory activity in LPS-induced BALB/c sepsis mouse model assessed as increase in SOD level in serum at 20 mg/kg, po preadministered with compound for 14 days followed by LPS stimulation and measured after 6 hrs; type: functional, organism-based; conditions: time 342.0 hrs
Mus musculus [11] = assay: Antiinflammatory activity in LPS-induced BALB/c sepsis mouse model assessed as decrease in COX-2 level in spleen at 10 to 20 mg/kg, po preadministered with compound for 14 days followed by LPS stimulation and measured after 6 hrs by Western blot analysis; type: functional, organism-based; conditions: dose 10-20 mg/kg, time 342.0 hrs
Mus musculus [12] = assay: Antiinflammatory activity in LPS-induced BALB/c sepsis mouse model assessed as decrease in TNF-alpha level in spleen at 10 to 20 mg/kg, po preadministered with compound for 14 days followed by LPS stimulation and measured after 6 hrs by Western blot analysis; type: functional, organism-based; conditions: dose 10-20 mg/kg, time 342.0 hrs
MV4-11 = assay: Antiproliferative activity against human MV4-11 cells assessed as inhibition of cell proliferation incubated for 48 hrs by CCK8 assay; type: functional, cell-based; conditions: MV4-11, 48 h
[13] = Oral bioavailability in Sprague-Dawley rat at 20 mg/kg measured after 48 hrs; type: ADME, organism-based; conditions: in vivo

MAP kinase-interacting serine/threonine-protein kinase 1, sequence (Q9BUB5 whole entry, looked up): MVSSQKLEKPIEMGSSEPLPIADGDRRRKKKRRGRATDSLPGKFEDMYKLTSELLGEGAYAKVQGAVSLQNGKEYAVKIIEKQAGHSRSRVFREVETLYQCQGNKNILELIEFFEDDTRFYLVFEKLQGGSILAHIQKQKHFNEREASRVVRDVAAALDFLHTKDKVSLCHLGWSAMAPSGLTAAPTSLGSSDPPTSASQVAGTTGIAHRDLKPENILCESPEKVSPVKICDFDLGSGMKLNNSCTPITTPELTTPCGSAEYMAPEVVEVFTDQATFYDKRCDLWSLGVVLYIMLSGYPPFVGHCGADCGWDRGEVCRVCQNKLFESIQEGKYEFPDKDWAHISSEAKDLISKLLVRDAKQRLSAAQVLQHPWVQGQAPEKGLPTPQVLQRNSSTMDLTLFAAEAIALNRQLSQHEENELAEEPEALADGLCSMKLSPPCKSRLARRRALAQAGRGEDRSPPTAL

- clearance [1]: 52 mL/min/kg
- inhibition [3]: 88.3%
- AUCt [7]: 1618 ng·h/mL
- pIC50 (MV4-11): 6.26
- F [13]: 1.16%
SMILES: c1cc(-c2cc(C3CCNCC3)n[nH]2)c2cc[nH]c2n1
- Activity (Mus musculus [2]): Active
- Activity [4]: Non-Toxic
- Activity (Mus musculus [5]): Active
- inhibition at 20 µM (RAW264.7 [6]): 70%
- Activity (RAW264.7 [8]): Active
- Activity (RAW264.7 [9]): Dose-Dependent Effect
- Activity (Mus musculus [10]): Active
- Activity (Mus musculus [11]): Active
- Activity (Mus musculus [12]): Active

Source: ChEMBL document CHEMBL5537205, “Discovery of D25, a Potent and Selective MNK Inhibitor for Sepsis-Associated Acute Spleen Injury” (J Med Chem, 2024)
